In the NIST ThermoML archive (doi:10.1016/j.jct.2012.04.029):
Numbers after ± are expanded uncertainties.

Conditions: Liquid, Ebulliometric method (Recirculating still)

COCC(C)O (stereo not drawn) [1-methoxy-2-propanol]
Conditions | vapor or sublimation pressure [kPa]
342.3 K | 15 ± 0.3
352.5 K | 23.5 ± 0.4
360.1 K | 32 ± 0.4
367.4 K | 42.1 ± 0.4
371.6 K | 49.1 ± 0.5
376 K | 57.6 ± 0.5
380 K | 66.1 ± 0.5
383.5 K | 74.6 ± 0.6
386.9 K | 83.3 ± 0.6
390.1 K | 92.6 ± 0.6
392.8 K | 99.9 ± 0.7
397.9 K | 116.9 ± 0.8
400 K | 125.5 ± 0.9
402.2 K | 134 ± 0.9
404.3 K | 142.5 ± 0.9
406.3 K | 151 ± 0.9
408.2 K | 159.5 ± 1
410 K | 168 ± 1
411.8 K | 176.5 ± 1

COCCO [2-methoxyethan-1-ol]
Conditions | vapor or sublimation pressure [kPa]
346.4 K | 15 ± 0.3
356.9 K | 23.5 ± 0.4
364.7 K | 32 ± 0.4
376 K | 49 ± 0.4
380.6 K | 57.5 ± 0.5
384.5 K | 66 ± 0.5
388.1 K | 74.5 ± 0.6
391.3 K | 83 ± 0.6
394.4 K | 91.5 ± 0.7
397.2 K | 100 ± 0.7
400.1 K | 108.5 ± 0.7
402.6 K | 117 ± 0.8
404.9 K | 125.5 ± 0.8
407 K | 134 ± 0.9
409.1 K | 142.5 ± 0.9
411.1 K | 151 ± 0.9
412.9 K | 159.5 ± 1
414.7 K | 168 ± 1
416.6 K | 176.5 ± 0.9
